Consider three molecules from ChEMBL document CHEMBL4732175, “Design and Characterization of a Pyridone-Containing EZH2 Inhibitor Phosphate Prodrug” (J Med Chem, 2021).

Structures are written as SMILES. Converted amounts (≈) assume the structure as drawn. The source made the active and inactive calls. The rule behind the calls is not given here. A value given as a limit tells only on which side of the number the result lay.

Data set [1] in a line: Distribution coefficient, log D of compound. The data set is classed as physicochemical. As to conditions: octanol/water.
Data set [2] can be described thus: Apparent solubility of the compound. The format is physicochemical.
Data set [3] concerns the target T1, Histone-lysine N-methyltransferase EZH2 (Homo sapiens, UniProt Q15910). The data set can be described thus: Inhibition of wild type EZH2 (unknown origin).
In data set [4] the target is Histone-lysine N-methyltransferase EZH2 (Homo sapiens, UniProt Q15910, Y641N). The data set can be described thus: Inhibition of wild type EZH2 Y641N mutant (unknown origin).
Sequence of Histone-lysine N-methyltransferase EZH2 (Homo sapiens, UniProt Q15910, Y641N) (Q15910 whole entry Y641N): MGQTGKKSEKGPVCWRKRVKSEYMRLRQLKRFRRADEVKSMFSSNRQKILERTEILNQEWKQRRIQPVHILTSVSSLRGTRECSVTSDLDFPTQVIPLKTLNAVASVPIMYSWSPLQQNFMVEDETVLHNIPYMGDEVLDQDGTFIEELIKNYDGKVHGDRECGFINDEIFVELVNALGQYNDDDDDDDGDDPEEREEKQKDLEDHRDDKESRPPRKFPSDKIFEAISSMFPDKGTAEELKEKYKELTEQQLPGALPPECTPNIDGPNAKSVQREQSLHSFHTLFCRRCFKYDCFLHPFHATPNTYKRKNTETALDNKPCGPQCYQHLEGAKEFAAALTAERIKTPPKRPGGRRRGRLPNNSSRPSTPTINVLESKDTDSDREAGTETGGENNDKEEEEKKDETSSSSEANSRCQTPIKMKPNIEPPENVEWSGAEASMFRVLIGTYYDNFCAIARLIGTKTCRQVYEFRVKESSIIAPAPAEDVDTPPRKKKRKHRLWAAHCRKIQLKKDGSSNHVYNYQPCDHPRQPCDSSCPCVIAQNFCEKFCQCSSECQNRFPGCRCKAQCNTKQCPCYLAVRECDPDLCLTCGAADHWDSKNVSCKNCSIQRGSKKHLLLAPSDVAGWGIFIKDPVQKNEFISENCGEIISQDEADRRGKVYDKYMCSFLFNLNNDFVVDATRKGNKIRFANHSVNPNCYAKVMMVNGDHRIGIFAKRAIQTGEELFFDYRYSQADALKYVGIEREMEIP
Data set [5] can be described thus: Drug level in mouse plasma at 120 mg/kg, po BID dosed using SEDDS formulation. The data set is classed as ADME, organism-based. Particulars: in vivo.
Data set [6] deals with T1, Histone-lysine N-methyltransferase EZH2. The data set can be described thus: Inhibition of wild type EZH2 in human KARPAS-422 cells assessed as effect on H3K27Me3 levels. The format is cell-based.
In data set [7] the test system is KARPAS-422. The data set can be described thus: Antitumor activity against human KARPAS-422 cells xenografted in mouse assessed as inhibition of tumor growth inhibition at 240 mg/kg/day dosed via SEDDS formulation for 30 days. As to conditions: KARPAS-422, 720 h, read-out: TGI. For orientation: A xenograft is tissue or cells of one species grown in another, often human tumour cells in immunodeficient mice.

Data set [8] in a line: Permeability in MDCK cells. The data set is classed as ADME, cell-based, Canis lupus familiaris. As to conditions: dog, read-out: permeability.
Data set [9] in a line: Intrinsic clearance in human liver microsomes. The data set is classed as ADME, Microsome. As to conditions: read-out: CLH. (Liver microsomes are vesicles of endoplasmic reticulum, rich in cytochrome P450 enzymes.)
Data set [10] is described as follows: Thermodynamic solubility in 0.5% MC/0.1% polysorbate 80 aqueous vehicle. The format is physicochemical. As to conditions: read-out: Therm_solubility.
For data set [11], the system named is KARPAS-422. The data set can be described thus: Inhibition of cell proliferation in human KARPAS-422 cells. The data set is classed as functional, cell-based.
Data set [12] is described as follows: Drug level in mouse plasma at 30 to 120 mg/kg, po BID. The data set is classed as ADME, organism-based. Particulars: in vivo, dose 30-120 mg/kg.
In data set [13] the test system is KARPAS-422. The data set can be described thus: Antitumor activity against human KARPAS-422 cells xenografted in mouse assessed as inhibition of tumor growth inhibition at 60 to 240 mg/kg/day dosed via MC formulation for 30 days. Particulars: dose 60-240 mg/kg/day, time 30.0 day. The data set is classed as functional, organism-based.
Data set [14] can be described thus: Chemical stability in simulated intestinal fluid at pH 6.8. The data set is classed as physicochemical.
Data set [15] concerns KARPAS-422. The data set can be described thus: Antitumor activity against human KARPAS-422 cells xenografted in mouse assessed as inhibition of tumor growth inhibition at 120 mg/kg/day dosed via MC formulation for 30 days. The format is functional. Particulars: KARPAS-422, 720 h, time 30 day, read-out: TGI.
The subject of data set [16] is KARPAS-422. The data set can be described thus: Antitumor activity against human KARPAS-422 cells xenografted in mouse assessed as inhibition of tumor growth inhibition at 60 mg/kg/day dosed via MC formulation for 30 days. The data set is classed as functional. Particulars: KARPAS-422, 720 h, time 30 day, read-out: TGI.
Data set [17] deals with KARPAS-422. The data set can be described thus: Antitumor activity against human KARPAS-422 cells xenografted in mouse assessed as inhibition of tumor growth inhibition at 147 mg/kg/day dosed via MC formulation for 30 days and measured up to 40 days after dosing cessation. The data set is classed as functional, organism-based. Particulars: time 30.0 day.
Data set [18] can be described thus: Chemical stability in simulated gastric fluid at pH 1.2. The format is physicochemical.
The nature of data set [19]: Drug level in rat plasma at 2000 mg/kg/day, po. The data set is classed as ADME, organism-based. As to conditions: in vivo.
The test system of data set [20] is KARPAS-422. The data set can be described thus: Antitumor activity against human KARPAS-422 cells xenografted in mouse assessed as inhibition of tumor growth inhibition at 240 mg/kg/day dosed via MC formulation for 30 days. The data set is classed as functional. Particulars: KARPAS-422, 720 h, time 30 day, read-out: TGI.
Data set [21] is described as follows: Drug metabolism in mouse plasma assessed as 5,8-dichloro-2-((4,6-dimethyl-2-oxo-1,2-dihydropyridin-3-yl)methyl)-7-(3,5-dimethylisoxazol-4-yl)-3,4-dihydroisoquinolin-1(2H)-one formation at 30 to 120 mg/kg, po BID. The format is ADME, organism-based. As to conditions: in vivo, dose 30-120 mg/kg.
For data set [22], the system named is KARPAS-422. The data set can be described thus: Antitumor activity against human KARPAS-422 cells xenografted in mouse assessed as inhibition of tumor growth inhibition at 240 mg/kg/day dosed via SEDDS formulation for 30 days. The data set is classed as functional, organism-based. Particulars: time 30.0 day.
Data set [23] can be described thus: Solubility in 0.5% MC formulation contained 1 equivalent of NaOH. The data set is classed as physicochemical. Particulars: 0.5% MC formulation containing 1 equivalent of NaOH.
The nature of data set [24]: Drug metabolism in rat plasma assessed as 5,8-dichloro-2-((4,6-dimethyl-2-oxo-1,2-dihydropyridin-3-yl)methyl)-7-(3,5-dimethylisoxazol-4-yl)-3,4-dihydroisoquinolin-1(2H)-one formation at 2000 mg/kg/day, po. The data set is classed as ADME, organism-based. As to conditions: in vivo.

T1 sequence (Q15910 whole entry): as the sequence (Q15910 whole entry Y641N) above, with N641Y counted along it

Consider `Cc1cc(C)c(CN2CCc3c(Cl)cc(-c4c(C)noc4C)c(Cl)c3C2=O)c(=O)[nH]1`, for which the logD in data set [1] was 3.1. For the same molecule, the solubility in data set [2] was found to be 140 µM (≈ 62.5 µg/mL). This molecule had a Ki in data set [3] of 1 nM.
For the molecule `Cc1cc(C)c(CN2CCc3c(Br)cc(-c4c(C)nnn4C)c(Cl)c3C2=O)c(=O)[nH]1`, the inhibition constant (Ki) in data set [4] is 7 nM; in data set [3] it was 2 nM. The molecule further gave a logD in [1] of 2.4. Further, the Drug uptake entry in data set [5] is on record as “Active”. The IC50 in [6] is 30 nM; in the data set with KARPAS-422 [11], 36 nM. Also, the inhibition in vivo at 240 mg/kg/day with KARPAS-422 [7] was found to be 98%. Also, the Papp in data set [8] is 9 ×10⁻⁶ cm/s. In addition, the microsomal CLint in data set [9] was 27.8 µL/min/mg. The solubility in data set [2] stood at 338 µM (≈ 166 µg/mL). In addition, the solubility thermodynamic in data set [10] was 41 µM (≈ 20.1 µg/mL).
Molecule `Cc1cc(C)n(COP(=O)(O)O)c(=O)c1CN1CCc2c(Br)cc(-c3c(C)nnn3C)c(Cl)c2C1=O` gave a Cp in data set [12] of less than 1 ng/mL. The TGI entry in the data set on KARPAS-422 [13] was “Dose-dependent effect”. For the same molecule, the Stabilty in [14] and in [18] was 8 h each time. In the data set with KARPAS-422 [15], the inhibition in vivo at 120 mg/kg/day came to 59%. Besides, in the data set on KARPAS-422 [16], the inhibition in vivo at 60 mg/kg/day was determined as 37%. Besides, the TGI entry with KARPAS-422 [17] and in the data set on KARPAS-422 [22] was “Active” throughout. Besides, the Drug uptake entry in data set [19] is reported as “Not Active”. In the data set on KARPAS-422 [20], the inhibition in vivo at 240 mg/kg/day amounted to 121%. Moreover, the figures for the Drug metabolism result in data set [21] and in data set [24] were “Dose-dependent effect” and “Metabolite_Detected”, respectively. The solubility in [23] came to 21600 µM.

A word on the logD: it is lipophilicity at a set pH, counting ionised and neutral species. Read a low logD as a more hydrophilic compound. Broadly, the solubility is the concentration that dissolves in the medium under given conditions. One may read the Ki as the equilibrium dissociation constant of an inhibitor or competing ligand from its target. A high value points to lower affinity. Broadly, the IC50 is the midpoint of a concentration-inhibition curve.
